US9938273B2 (Plexxikon Inc., priority 2015, dated 2018)

Target: T1, c-KIT (Homo sapiens, UniProt P10721)
T1 construct: purchased Millipore 14-559K
Test: AlphaScreen kinase assay with recombinant enzyme, c-KIT
Format: biochemical
Conditions: 100ATP, 8pt, GMean
How it was run: (§1)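 Compounds in DMSO added to enzyme plus biotin-poly(Glu4-Tyr) (30 nM) in assay buffer, then ATP added. Streptavidin donor beads added (20 min, RT), then PY20 acceptor beads (60 min, RT), both at 10 μg/mL final in stop/detection buffer. IC50 conditions: 10 μM FLT3-D835Y/ITD, 100 μM c-KIT.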

T1 sequence (P10721 26-976): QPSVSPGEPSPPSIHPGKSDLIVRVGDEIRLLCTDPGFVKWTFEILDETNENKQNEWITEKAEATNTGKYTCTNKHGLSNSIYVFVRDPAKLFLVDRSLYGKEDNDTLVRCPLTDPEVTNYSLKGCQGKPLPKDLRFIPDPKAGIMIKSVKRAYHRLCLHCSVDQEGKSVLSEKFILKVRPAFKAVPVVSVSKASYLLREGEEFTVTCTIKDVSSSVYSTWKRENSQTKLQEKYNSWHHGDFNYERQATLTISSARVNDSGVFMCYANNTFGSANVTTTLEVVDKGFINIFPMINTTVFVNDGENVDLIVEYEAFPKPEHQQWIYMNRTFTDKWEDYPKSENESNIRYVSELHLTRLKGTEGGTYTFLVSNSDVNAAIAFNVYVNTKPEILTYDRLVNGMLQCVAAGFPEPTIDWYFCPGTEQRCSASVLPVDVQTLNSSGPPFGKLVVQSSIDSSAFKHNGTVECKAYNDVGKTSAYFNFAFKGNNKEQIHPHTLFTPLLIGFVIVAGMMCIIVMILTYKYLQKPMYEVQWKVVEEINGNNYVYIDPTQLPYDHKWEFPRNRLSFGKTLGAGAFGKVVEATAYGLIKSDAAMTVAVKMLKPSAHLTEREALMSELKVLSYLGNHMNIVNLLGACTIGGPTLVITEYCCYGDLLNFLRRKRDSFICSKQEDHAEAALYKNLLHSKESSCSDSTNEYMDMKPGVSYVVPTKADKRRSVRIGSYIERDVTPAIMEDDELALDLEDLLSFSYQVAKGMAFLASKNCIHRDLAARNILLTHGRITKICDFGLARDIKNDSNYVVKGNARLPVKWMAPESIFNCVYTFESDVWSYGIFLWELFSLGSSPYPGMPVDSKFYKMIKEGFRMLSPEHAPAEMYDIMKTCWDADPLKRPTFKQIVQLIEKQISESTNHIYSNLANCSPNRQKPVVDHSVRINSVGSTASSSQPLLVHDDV

| IC50 | SMILES |
| --- | --- |
| 0.0001 to 10 µM | CONC(=O)c1cccc(-c2cnc3[nH]c(-c4ccccc4)cc3c2)c1 [Compound P-0003, N-methoxy-3-(2-phenyl-1H-pyrrolo[2,3-b]pyridin-5-yl)benzamide] |
| 0.0001 to 10 µM | C#Cc1cc2cc(-c3cccc(S(=O)(=O)NC4CC4)c3)cnc2[nH]1 [Compound P-0004, N-cyclopropyl-3-(2-ethynyl-1H-pyrrolo[2,3-b]pyridin-5-yl)benzenesulfonamide] |
| 0.0001 to 10 µM | NC(=O)Nc1ccc(-c2cnc3[nH]c(-c4ccccc4)cc3c2)cc1 [Compound P-0005, [4-(2-phenyl-1H-pyrrolo[2,3-b]pyridin-5-yl)phenyl]urea] |
| 10 to 50 µM | CN(C)S(=O)(=O)Nc1cccc(-c2cnc3[nH]c(-c4ccccc4)cc3c2)c1 [Compound P-0007, 5-[3-(dimethylsulfamoylamino)phenyl]-2-phenyl-1H-pyrrolo[2,3-b]pyridine] |
| 50 to 100 µM | CC(=O)NC1CCN(C(=O)c2n[nH]c3ccc(-c4cnc5[nH]c(-c6ccccc6)cc5c4)cc23)CC1 [Compound P-0021, N-[1-[5-(2-phenyl-1H-pyrrolo[2,3-b]pyridin-5-yl)-1H-indazole-3-carbonyl]-4-piperidyl]acetamide] |

Target: T2, FLT3-ITD (Homo sapiens, UniProt P36888)
T2 sequence (P36888 1-993): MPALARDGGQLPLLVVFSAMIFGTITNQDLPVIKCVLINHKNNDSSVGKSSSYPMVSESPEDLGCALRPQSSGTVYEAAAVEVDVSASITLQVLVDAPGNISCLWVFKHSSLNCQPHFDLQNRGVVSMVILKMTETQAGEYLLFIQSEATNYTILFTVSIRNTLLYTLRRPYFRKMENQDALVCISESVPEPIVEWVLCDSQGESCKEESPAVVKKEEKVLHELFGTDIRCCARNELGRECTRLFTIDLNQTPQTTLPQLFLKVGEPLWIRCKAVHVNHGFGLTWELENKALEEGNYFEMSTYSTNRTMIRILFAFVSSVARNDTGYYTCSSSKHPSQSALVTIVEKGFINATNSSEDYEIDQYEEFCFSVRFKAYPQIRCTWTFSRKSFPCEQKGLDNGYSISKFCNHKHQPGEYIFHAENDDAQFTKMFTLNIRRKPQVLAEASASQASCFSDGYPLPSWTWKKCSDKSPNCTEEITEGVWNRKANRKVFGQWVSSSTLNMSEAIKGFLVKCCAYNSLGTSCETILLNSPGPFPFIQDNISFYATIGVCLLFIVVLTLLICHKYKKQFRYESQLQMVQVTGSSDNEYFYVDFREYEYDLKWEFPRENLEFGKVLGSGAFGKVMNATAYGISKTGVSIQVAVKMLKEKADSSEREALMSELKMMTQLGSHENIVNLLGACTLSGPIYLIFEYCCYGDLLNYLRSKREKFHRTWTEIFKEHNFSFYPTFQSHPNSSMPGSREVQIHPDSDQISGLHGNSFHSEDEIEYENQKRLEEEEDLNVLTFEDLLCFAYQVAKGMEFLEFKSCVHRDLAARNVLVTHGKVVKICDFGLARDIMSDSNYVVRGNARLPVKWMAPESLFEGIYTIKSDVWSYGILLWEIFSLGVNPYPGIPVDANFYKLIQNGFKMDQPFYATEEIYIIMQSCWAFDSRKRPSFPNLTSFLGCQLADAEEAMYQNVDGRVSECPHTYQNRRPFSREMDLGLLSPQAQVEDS
Test: AlphaScreen kinase assay with recombinant enzyme, FLT3-ITD
Format: biochemical
Conditions: 8pt; read-out: FLT3_ITD 8pt: IC50
How it was run: as §1

| IC50 | SMILES |
| --- | --- |
| 0.0001 to 10 µM | CONC(=O)c1cccc(-c2cnc3[nH]c(-c4ccccc4)cc3c2)c1 [Compound P-0003, N-methoxy-3-(2-phenyl-1H-pyrrolo[2,3-b]pyridin-5-yl)benzamide] |
| 0.0001 to 10 µM | NC(=O)Nc1ccc(-c2cnc3[nH]c(-c4ccccc4)cc3c2)cc1 [Compound P-0005, [4-(2-phenyl-1H-pyrrolo[2,3-b]pyridin-5-yl)phenyl]urea] |
| 0.0001 to 10 µM | CN1CC(NC(=O)c2cccc(-c3cnc4[nH]c(-c5ccccc5)cc4c3)n2)C1 [Compound P-0075, N-(1-methylazetidin-3-yl)-6-(2-phenyl-1H-pyrrolo[2,3-b]pyridin-5-yl)pyridine-2-carboxamide] |
| 0.0001 to 10 µM | NC1(C(F)(F)F)CCN(C(=O)c2cccc(-c3cnc4[nH]c(-c5ccccc5)cc4c3)n2)C1 (stereo not drawn) [Compound P-0077, [3-amino-3-(trifluoromethyl)pyrrolidin-1-yl]-[6-(2-phenyl-1H-pyrrolo[2,3-b]pyridin-5-yl)-2-pyridyl]methanone] |
| 0.0001 to 10 µM | CC1(N)CCN(C(=O)c2cccc(-c3cnc4[nH]c(-c5ccccc5)cc4c3)n2)C1 (stereo not drawn) [Compound P-0078, (3-amino-3-methyl-pyrrolidin-1-yl)-[6-(2-phenyl-1H-pyrrolo[2,3-b]pyridin-5-yl)-2-pyridyl]methanone] |
| 0.0001 to 10 µM | CNCC1CCN(C(=O)c2cccc(-c3cnc4[nH]c(-c5ccccc5)cc4c3)n2)C1 (stereo not drawn) [Compound P-0079, [3-(methylaminomethyl)pyrrolidin-1-yl]-[6-(2-phenyl-1H-pyrrolo[2,3-b]pyridin-5-yl)-2-pyridyl]methanone] |
| 0.0001 to 10 µM | CC(C)(C#N)NC(=O)c1cccc(-c2cnc3[nH]c(-c4cscn4)cc3c2)n1 [Compound P-0167, N-(1-cyano-1-methyl-ethyl)-6-(2-thiazol-4-yl-1H-pyrrolo[2,3-b]pyridin-5-yl)pyridine-2-carboxamide] |
| 0.0001 to 10 µM | CC(C)(C#N)NC(=O)c1cccc(-c2cnc3[nH]c(-c4cnn(C(=O)C5CC5)c4)cc3c2)n1 [Compound P-0184, N-(1-cyano-1-methyl-ethyl)-6-[2-[1-(cyclopropanecarbonyl)pyrazol-4-yl]-1H-pyrrolo[2,3-b]pyridin-5-yl]pyridine-2-carboxamide] |
| 0.0001 to 10 µM | CC(C)(C#N)NC(=O)c1cccc(-c2cnc3[nH]c(-c4cnn(C(F)F)c4)c(Cl)c3c2)n1 [Compound P-0185, 6-[3-chloro-2-[1-(difluoromethyl)pyrazol-4-yl]-1H-pyrrolo[2,3-b]pyridin-5-yl]-N-(1-cyano-1-methyl-ethyl)pyridine-2-carboxamide] |
| 0.0001 to 10 µM | CC(C)(C#N)NC(=O)c1cccc(-c2cnc3[nH]c(C4=CCS(=O)(=O)CC4)cc3c2)n1 [Compound P-0186, N-(1-cyano-1-methyl-ethyl)-6-[2-(1,1-dioxo-3,6-dihydro-2H-thiopyran-4-yl)-1H-pyrrolo[2,3-b]pyridin-5-yl]pyridine-2-carboxamide] |
| 0.0001 to 10 µM | CC(C)Oc1ccc(-c2cc3cc(-c4cccc(C(=O)NC(C)(C)C#N)n4)cnc3[nH]2)cn1 [Compound P-0190, N-(1-cyano-1-methyl-ethyl)-6-[2-(6-isopropoxy-3-pyridyl)-1H-pyrrolo[2,3-b]pyridin-5-yl]pyridine-2-carboxamide] |
| 0.0001 to 10 µM | CC(C)Oc1ncc(-c2cc3cc(-c4cccc(C(=O)NC(C)(C)C#N)n4)cnc3[nH]2)cn1 [Compound P-0191, N-(1-cyano-1-methyl-ethyl)-6-[2-(2-isopropoxypyrimidin-5-yl)-1H-pyrrolo[2,3-b]pyridin-5-yl]pyridine-2-carboxamide] |
| 0.0001 to 10 µM | Cc1nn(C(C)C)cc1-c1[nH]c2ncc(-c3cccc(C(=O)NC(C)(C)C#N)n3)cc2c1Cl [Compound P-0192] |
| 0.0001 to 10 µM | CC(C)(C#N)NC(=O)c1cccc(-c2cnc3[nH]c(-c4cnn(CC(F)(F)F)c4)cc3c2)n1 [Compound P-0193, N-(1-cyano-1-methyl-ethyl)-6-[2-[1-(2,2,2-trifluoroethyl)pyrazol-4-yl]-1H-pyrrolo[2,3-b]pyridin-5-yl]pyridine-2-carboxamide] |
| 0.0001 to 10 µM | CC(C)(C#N)NC(=O)c1cccc(-c2cnc3[nH]c(-c4ccc(C5(C#N)CC5)cc4)cc3c2)n1 [Compound P-0194, 6-[2-[4-(1-cyanocyclopropyl)phenyl]-1H-pyrrolo[2,3-b]pyridin-5-yl]-N-(1-cyano-1-methyl-ethyl)pyridine-2-carboxamide] |
| 0.0001 to 10 µM | CC(C)(C#N)NC(=O)c1cccc(-c2cnc3[nH]c(-c4cncnc4)cc3c2)n1 [Compound P-0195, N-(1-cyano-1-methyl-ethyl)-6-(2-pyrimidin-5-yl-1H-pyrrolo[2,3-b]pyridin-5-yl)pyridine-2-carboxamide] |
| 0.0001 to 10 µM | COc1ncc(-c2cc3cc(-c4cccc(C(=O)NC(C)(C)C#N)n4)cnc3[nH]2)cn1 [Compound P-0196, N-(1-cyano-1-methyl-ethyl)-6-[2-(2-methoxypyrimidin-5-yl)-1H-pyrrolo[2,3-b]pyridin-5-yl]pyridine-2-carboxamide] |
| 0.0001 to 10 µM | CC(C)(C#N)NC(=O)c1cccc(-c2cnc3[nH]c(-c4ccc(N5CCOCC5)nc4)cc3c2)n1 [Compound P-0197, N-(1-cyano-1-methyl-ethyl)-6-[2-(6-morpholino-3-pyridyl)-1H-pyrrolo[2,3-b]pyridin-5-yl]pyridine-2-carboxamide] |
| 0.0001 to 10 µM | CC(C)(C#N)NC(=O)c1cccc(-c2cnc3[nH]c(-c4cnc(N5CCOCC5)nc4)cc3c2)n1 [Compound P-0198, N-(1-cyano-1-methyl-ethyl)-6-[2-(2-morpholinopyrimidin-5-yl)-1H-pyrrolo[2,3-b]pyridin-5-yl]pyridine-2-carboxamide] |
| 0.0001 to 10 µM | CC(C)(C#N)NC(=O)c1cccc(-c2cnc3[nH]c(-c4cccc(N5CCCS5(=O)=O)c4)cc3c2)n1 [Compound P-0199, N-(1-cyano-1-methyl-ethyl)-6-[2-[3-(1,1-dioxo-1,2-thiazolidin-2-yl)phenyl]-1H-pyrrolo[2,3-b]pyridin-5-yl]pyridine-2-carboxamide] |
| 0.0001 to 10 µM | CC(C)(NC(=O)c1cccc(-c2cnc3[nH]c(-c4cnn(C5CCNCC5)c4)cc3c2)n1)C(N)=O [Compound P-0200, N-(2-amino-1,1-dimethyl-2-oxo-ethyl)-6-[2-[1-(4-piperidyl)pyrazol-4-yl]-1H-pyrrolo[2,3-b]pyridin-5-yl]pyridine-2-carboxamide] |
| 0.0001 to 10 µM | CC(C)(C#N)NC(=O)c1cccc(-c2cnc3[nH]c(-c4cnc(N5CCCC5)nc4)cc3c2)n1 [Compound P-0202, N-(1-cyano-1-methyl-ethyl)-6-[2-(2-pyrrolidin-1-ylpyrimidin-5-yl)-1H-pyrrolo[2,3-b]pyridin-5-yl]pyridine-2-carboxamide] |
| 0.0001 to 10 µM | CCOc1ncc(-c2cc3cc(-c4cccc(C(=O)NC(C)(C)C#N)n4)cnc3[nH]2)cn1 [Compound P-0203, N-(1-cyano-1-methyl-ethyl)-6-[2-(2-ethoxypyrimidin-5-yl)-1H-pyrrolo[2,3-b]pyridin-5-yl]pyridine-2-carboxamide] |
| 0.0001 to 10 µM | CCc1ncc(-c2cc3cc(-c4cccc(C(=O)NC(C)(C)C#N)n4)cnc3[nH]2)cn1 [Compound P-0205, N-(1-cyano-1-methyl-ethyl)-6-[2-(2-ethylpyrimidin-5-yl)-1H-pyrrolo[2,3-b]pyridin-5-yl]pyridine-2-carboxamide] |
| 0.0001 to 10 µM | CCCOc1ncc(-c2cc3cc(-c4cccc(C(=O)NC(C)(C)C#N)n4)cnc3[nH]2)cn1 [Compound P-0206, N-(1-cyano-1-methyl-ethyl)-6-[2-(2-propoxypyrimidin-5-yl)-1H-pyrrolo[2,3-b]pyridin-5-yl]pyridine-2-carboxamide] |
